Results on two compounds are retold here after patent US20230293591A1, “Therapeutic Substances, their Preparation and Diagnostic Procedure” (KING'S COLLEGE LONDON, priority 2017, published 2023).

Experiment [1] deals with GvHD effector cells (CD8+Vβ8.3+). Kind of experiment: Mouse GvHD model: infiltration of GvHD effector cells in spleen and lungs by flow-cytometry. The experiment is classed as in vivo. The following applies: GvHD mice, IDO inhibitor 2 mg/ml in drinking water from 6 days prior to MSC injection. The text has this:
Acute GvHD was induced as previously described (T. Toubai et al. Blood, 119, 3844-3853 (2012)). Briefly, after lethal irradiation (11 Gy), recipient C57BL/6 male mice were transplanted with 1×10^6 purified CD8+ cells transgenic for a T-cell receptor specific for the male HY-antigen Uty (Matahari, Mh) from female Mh mice as GvHD effectors (FIG. 9A), 5×10^6 unfractionated bone marrow (BM) and 2×10^6 purified polyclonal CD4+ cells from female syngeneic donors (C57BL/6 wild-type donors). The control group received BM and purified CD4+ cells only. CD4+ and CD8+ T cells were obtained by positive selection using magnetic beads (Miltenyi Biotec Ltd, Bisley, UK). Live MSC (1×10^6) were injected i.v. at day +3, whilst apoMSC (1×10^6) were administered i.v. or i.p. at day +1, +3 and +6 from the transplant. Unless otherwise specified, animals were euthanized for analysis at day +7. The infiltration of GvHD effector cells was assessed by flow-cytometry and the percentage was expressed as proportion of cells in the lymphocyte gate, based on the physical characteristics of the cells.
In this model, the expansion of the T cells effecting GvHD (CD8+Vβ8.3+) can be precisely enumerated.

The subject of another experiment is caspase 3. Put plainly: Caspase 3 activation in MSC cultured with activated PBMC (FRET-MSC). The experiment is classed as cell-based, human. On the procedure: Luc-MSC were transfected with the pGL3-Control vector containing the SV40 promoter for the expression of Luc+ (Promega, Southampton, UK) or with pECFPDEVDR-Venus (Addgene, Teddington, UK) using electroporation (Gene Pulser Xcell, BioRad, Kidlington, UK). Cells were suspended in a total volume of 250 μl of buffer and electroporated in 0.4 cm gap cuvettes using 10 μg of DNA at 250 volts and […]. When pECFP-DEVDR-Venus was used, the donor fluorophore pECFP and the acceptor Venus-YFP were linked through the flexible linker DEVDR which is recognized and cleaved by the active form of caspase 3. In this system caspase 3 activity can be monitored through the analysis of the Förster Resonance Energy Transfer (FRET) between pECFP and Venus-YFP. […]
The following antibodies specific for murine molecules were used: anti-CD45 (FITC, Clone 30-F11) (eBiosciences Ltd, Hatfield, UK), anti-Vβ8.3 (FITC, Clone 1B3.3), antiCD8 (APC, Clone 53-6.7), antiCD4 (PE, Clone H129.19), anti-CD19 (APC-H7, Clone 1D3), anti-NK1.1 (PerCP-Cy5.5, Clone PK136) (BD Biosciences, Oxford, UK), anti-CD11b (PerCP-Cy5.5, clone M1/70), anti-CD11c (APC-Cy7, clone n418), anti-Ido1 (Alexa Fluo647, clone 2e2) (BioLegend, London, UK). […] All samples were acquired using BD FACS Canto II using the software FACS Diva and analyzed with Flow-jo software. […]

Another experiment deals with PGE2. Kind of experiment: PGE2 ELISA in supernatant of MSC co-cultured with IBD patients' PBMC. In kind it is cell-based, human. The note with it: MSC (5×10^4) and patients PBMC (1×10^6), 24 hours, inhibitor 50 μM. On the procedure:
In particular MSC (5×10^4) and patients PBMC (1×10^6) were co-cultured for 24 hours, either with or without addition of a pan-caspase inhibibtor, Z-VAD-FMK (50 μM).
Supernatant was collected and PGE2 levels were measured by ELISA.
(An ELISA detects its analyte on a solid surface through an enzyme-linked reagent.)

Where a SMILES comes first, the peptide text is derived from it. The star is where a group is joined. Cbz = O=C(OCc1ccccc1)*; CH2F = FC*

With `Cn1cc(C[C@@H](N)C(=O)O)c2ccccc21` [1-DMT, 1-methyl-D-tryptophan], the “beneficial effect of MSC on Mh T cell infiltration” value in experiment [1] was “much reduced”.

On to `COC(=O)C[C@H](NC(=O)[C@H](C)NC(=O)[C@@H](NC(=O)OCc1ccccc1)C(C)C)C(=O)CF` [Z-VAD-FMK] (Cbz-Val-Ala-Asp(OMe)-CH2F), for which the “caspase activation in MSC induced by activated PBMC in presence of inhibitor” value with caspase 3 is given as “completely abrogated”. Moreover, in the experiment with PGE2, the “PGE2 levels in supernatant” value is “largely reduce”.
